Measurements as given in patent US20130252951A1, “7-HYDROXY-PYRAZOLO[1,5-A] PYRIMIDINE COMPOUNDS AND THEIR USE AS CCR2 RECEPTOR ANTAGONISTS” (Proximagen Limited, priority 2010, published 2013).
pKi: −log10 of the molar value.

target: human CCR2 (Homo sapiens, UniProt P41597); test: CCR2 functional calcium assay (FLIPR calcium flux, hMCP-1 challenge); format: cell-based; parameters: expressed in transfected cells; host or cells: HEK293 EBNA cells; conditions: HEK293 EBNA cells transfected with human CCR2, hMCP-1 challenge; read-out: Functional CCR2 fKi
Excerpt: The CCR2 receptor couples through the Gi/Gq signaling pathway and results in activation of calcium mobilization. The functional activity of test compounds was routinely tested by measuring the ability of compounds to antagonize CCR2 activity in a dose dependent manner, in HEK293 EBNA cells transfected with the human CCR2 receptor (hMCP-1 challenge), using a calcium flux Fluorescent Imaging Plate Reader FLIPR assay. Non-transfected HEK293 EBNA cells were used as control of non-specific response.
Briefly, test compounds were dissolved in dimethyl sulfoxide (DMSO) to a concentration of 10 mM and stored in matrix screenmate racks. The required amount of compound was transferred to 96-well compound plates on the day of assay and diluted in assay buffer to the required final concentration; dose-response measurements were assayed by making 1:3 serial dilutions to produce 10 point curves. The compounds were then transferred to 384-well assay plates ready for use. Top concentrations were adjusted depending on the potency of the compounds with a typical concentration range of 30 μM to 0.5 nM being used. The assay buffer used was HBSS buffer supplemented with 20 mM HEPES and 0.1% BSA, pH7.4. The loading/wash buffers were the same as the assay buffer.
Cells were suspended in culture medium at a density of 10000 cells/50 μl (the cell culture media composition was DMEM high glucose supplemented with 10% dialyzed FBS, 250 μg/ml Geneticin, and 400 μg/ml Hygromycin B), transferred to 384-well black/clear Costar plates (Costar #3712) (50 μl/well) and incubated at 37° C., in a 5% CO2/95% air humidified incubator for 16 h. The cells were washed with assay buffer at 37° C. using the Biotek ELx 405, washing 3 times, leaving 20 μl buffer in the well. 20 μl Fluo-4 (Fluo-4 stock solution (1 mM) was prepared by dissolving one vial of Fluo-4 (50 μg) in 45 μl of pluronic acid (240 mg/ml in DMSO). This stock solution of Fluo-4 was then diluted 250 times with loading buffer to give a Fluo-4 concentration of 4 μM. The dye solution (used within 2 h and kept away from light) was added to each well using a repeating multichannel pipette; the cells were then incubated at 37° C. for 60 min. Following the incubation, cells were washed in assay buffer at 37° C. using the Biotek ELx 405, washing 3 times, leaving 40 μl in each well and incubated for 10 min at 37° C. before use. A combined agonist/antagonist protocol was used. Compound (antagonist) was added to the cell plate using the FLIPR. Basal fluorescence was recorded every second for 10 seconds prior to compound addition (10 μl) and fluorescence recorded every second for 1 minute then every 6 seconds for a further 1 minute. Agonist (MCP-1) was then added using the FLIPR and fluorescence recorded as described above.
The positive control (agonist) was human recombinant MCP-1 which was stored as a stock concentration of 10 μM in distilled water and stored at −20° C. (maximal response: 30 nM; EC50 dose: 3-5 nM). The reference compound (antagonist) was RS102895 which was used as a 10 mM DMSO solution and stored at −20° C.
FLIPR responses were measured as peak minus basal fluorescence intensity and were expressed as a percentage of EC50 MCP-1 challenge. Curve-fitting and parameter estimation were carried out using GraphPad Prism 4.0 (GraphPad Software Inc., San Diego, Calif.).

human CCR2, sequence (P41597 whole entry): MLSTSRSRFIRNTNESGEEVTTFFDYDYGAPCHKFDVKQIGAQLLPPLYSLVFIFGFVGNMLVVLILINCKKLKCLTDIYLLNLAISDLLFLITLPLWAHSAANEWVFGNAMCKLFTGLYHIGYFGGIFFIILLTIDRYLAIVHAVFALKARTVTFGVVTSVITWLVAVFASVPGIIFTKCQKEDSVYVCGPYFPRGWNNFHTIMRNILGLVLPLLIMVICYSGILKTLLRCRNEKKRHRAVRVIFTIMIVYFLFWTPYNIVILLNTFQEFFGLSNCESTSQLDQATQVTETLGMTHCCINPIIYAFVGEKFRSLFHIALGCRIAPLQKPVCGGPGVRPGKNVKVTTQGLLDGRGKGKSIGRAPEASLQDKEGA

Compared with Cc1nc2c(C(=O)NC[C@@H]3CCCO3)cnn2c(O)c1Cc1ccc(Cl)cc1 (stereo in doubt) [Example 110, 6-[(4-Chlorophenyl)methyl]-7-hydroxy-5-methyl-N-(oxolan-2-ylmethyl)pyrazolo-[1,5-a] pyrimidine-3-carboxamide], COC(=O)c1nc2ccnn2c(O)c1Cc1ccc(Cl)cc1 [Example 6, Methyl 6-[(4-chlorophenyl)methyl]-7-hydroxypyrazolo[1,5-a]pyrimidine-5-carboxylate] is higher in pKi: 6.00 to 7.00 for the first, 7.00 to 8.00 for the second. The second binds more tightly here.

Compared with Cc1nc2ccnn2c(O)c1Cc1ccc(C(F)(F)F)cc1 [Example 2, 5-Methyl-6-{[4-(trifluoromethyl)phenyl]methyl}pyrazolo[1,5-a]pyrimidin-7-ol], Oc1c(Cc2ccc(C(F)(F)F)cc2)c(C2CC2)nc2ccnn12 [Example 23] is higher in pKi: 6.00 to 7.00 for the first, over 8.00 for the second.

Oc1c(Cc2cccc(F)c2)c(-c2cnccn2)nc2cncn12 [Example 3, 3-[(3-Fluorophenyl)methyl]-2-(pyrazin-2-yl)imidazo[1,5-a]pyrimidin-4-ol] and COc1cccc(Cc2c(C)nc3ccnn3c2O)c1 [Example 10, 6-[(3-Methoxyphenyl)methyl]-5-methyl-pyrazolo[1,5-a]pyrimidin-7-ol] fall in the same range of pKi: 6.00 to 7.00 for the first, 6.00 to 7.00 for the second.

CCc1nc2ccnn2c(O)c1Cc1cc(F)cc(C(F)(F)F)c1 [Example 4, 5-Ethyl-6-{[3-fluoro-5-(trifluoromethyl)phenyl]methyl}pyrazolo[1,5-a]pyrimidin-7-ol] and CCc1nc2ccnn2c(O)c1Cc1cc(F)cc(F)c1 [Example 12, 6-[(3,5-difluorophenyl)methyl]-5-ethyl-pyrazolo[1,5-a]pyrimidin-7-ol] cannot be ordered by pKi: over 8.00 for the first, over 8.00 for the second.

First: Cc1nc2ccnn2c(O)c1Oc1cccc(F)c1 [Example 5, 6-(3-Fluorophenoxy)-5-methylpyrazolo[1,5-a]pyrimidin-7-ol]
Second: Cc1nc2ccnn2c(O)c1Cc1cccc(F)c1F [Example 7, 6-[(2,3-Difluorophenyl)methyl]-5-methyl-pyrazolo[1,5-a]pyrimidine-7-ol]
The pKi of the first is higher: 7.00 to 8.00 for the first, 6.00 to 7.00 for the second. The first binds more tightly here.

First: Cc1nc2ccnn2c(O)c1Cc1ccc(F)c(C#N)c1 [Example 8, 2-Fluoro-5-({7-hydroxy-5-methylpyrazolo-(1,5-a]pyrimidin-6-yl}methyl)benzonitrile]
Second: Cc1nc2ccnn2c(O)c1Cc1ccc(Cl)c(Br)c1 [Example 9, 6-[(3-Bromo-4-chlorophenyl)methyl]-5-methylpyrazolo[1,5-a]pyrimidin-7-ol]
The pKi of the first is lower: 6.00 to 7.00 for the first, 7.00 to 8.00 for the second. The second binds more tightly here.

First: Cc1nc2ccnn2c(O)c1C(C)c1ccc(Cl)cc1 (stereo not shown) [Example 11, 6-[1-(4-Chlorophenyl)ethyl]-5-methyl-pyrazolo[1,5-a]pyrimidin-7-ol]
Second: CC(C)c1nc2ccnn2c(O)c1Cc1ccc(F)c(F)c1 [Example 35, 6-[(3,4-Difluorophenyl)methyl]-5-(propan-2-yl)pyrazolo[1,5-a]pyrimidin-7-ol]
The pKi of the first is lower: 6.00 to 7.00 for the first, over 8.00 for the second.

CCc1nc2ccnn2c(O)c1Cc1cc(F)c(F)c(F)c1 [Example 13, 5-Ethyl-6-[(3,4,5-trifluorophenyl)-methyl]pyrazolo[1,5-a]pyrimidin-7-ol] and CC(C)c1nc2ccnn2c(O)c1Cc1cc(F)c(F)c(F)c1 [Example 36, 5-(Propan-2-yl)-6-[(3,4,5-trifluorophenyl)-methyl]pyrazolo[1,5-a]pyrimidin-7-ol] cannot be ordered by pKi: over 8.00 for the first, over 8.00 for the second.

CCc1nc2ccnn2c(O)c1Cc1ccc(F)c(Cl)c1 [Example 14, 6-[(3-Chloro-4-fluorophenyl)methyl]-5-ethylpyrazolo[1,5-a]pyrimidin-7-ol] and CCc1nc2ccnn2c(O)c1Cc1ccc(Cl)c(Cl)c1 [Example 15, 6-[(3,4-Dichlorophenyl)methyl]-5-ethylpyrazolo[1,5-a]pyrimidin-7-ol] cannot be ordered by pKi: over 8.00 for the first, over 8.00 for the second.

CCCc1nc2ccnn2c(O)c1Cc1ccc(Cl)c(Cl)c1 [Example 17, 6-[(3,4-Dichlorophenyl)methyl]-5-propyl-pyrazolo[1,5-a]pyrimidin-7-ol] and CC(C)c1nc2ccnn2c(O)c1Cc1ccc(Cl)c(Cl)c1 [Example 41, 6-[(3,4-Dichlorophenyl)methyl]-5-(propan-2-yl)pyrazolo[1,5-a]pyrimidin-7-ol] cannot be ordered by pKi: over 8.00 for the first, over 8.00 for the second.

Oc1c(Cc2ccccc2)c(C2CC2)nc2ccnn12 [Example 18, 6-Benzyl-5-cyclopropylpyrazolo[1,5-a]-pyrimidin-7-ol] and Oc1c(Cc2cccc(Cl)c2)c(C2CCC2)nc2ccnn12 [Example 43, 6-[(3-Chlorophenyl)methyl]-5-cyclobutyl-pyrazolo[1,5-a]pyrimidin-7-ol] cannot be ordered by pKi: over 8.00 for the first, over 8.00 for the second.

Oc1c(Cc2ccc(OC(F)(F)F)cc2)c(C2CC2)nc2ccnn12 [Example 19, 5-Cyclopropyl-6-{[4-(trifluoromethoxy)-phenyl]methyl}pyrazolo[1,5-a]pyrimidin-7-ol] and Oc1c(Cc2cccc(OC(F)(F)F)c2)c(C2CC2)nc2ccnn12 [Example 20, 5-Cyclopropyl-6-{[3-(trifluoromethoxy)-phenyl]methyl}pyrazolo[1,5-a]pyrimidin-7-ol] fall in the same range of pKi: 7.00 to 8.00 for the first, 7.00 to 8.00 for the second.

Oc1c(Cc2ccc(F)c(F)c2)c(C2CC2)nc2ccnn12 [Example 24, 5-Cyclopropyl-6-[(3,4-difluorophenyl)-methyl]pyrazolo[1,5-a]pyrimidin-7-ol] and Oc1c(Cc2ccc(Cl)c(F)c2)c(C2CC2)nc2ccnn12 [Example 27, 6-[(4-Chloro-3-fluorophenyl)methyl]-5-cyclopropylpyrazolo[1,5-a]pyrimidin-7-ol] cannot be ordered by pKi: over 8.00 for the first, over 8.00 for the second.

Oc1c(Cc2cc(F)cc(F)c2)c(C2CC2)nc2ccnn12 [Example 25, 5-Cyclopropyl-6-[(3,5-difluorophenyl)-methyl]pyrazolo[1,5-a]pyrimidin-7-ol] and Oc1c(Cc2cc(F)cc(Cl)c2)c(C2CC2)nc2ccnn12 [Example 29, 6-[(3-Chloro-5-fluorophenyl)methyl]-5-cyclopropylpyrazolo[1,5-a]pyrimidin-7-ol] cannot be ordered by pKi: over 8.00 for the first, over 8.00 for the second.

Oc1c(Cc2cc(F)c(F)c(F)c2)c(C2CC2)nc2ccnn12 [Example 26, 5-Cyclopropyl-6-[(3,4,5-trifluorophenyl)-methyl]pyrazolo[1,5-a]pyrimidin-7-ol] and Oc1c(Cc2ccc(C(F)(F)F)c(F)c2)c(C2CC2)nc2ccnn12 [Example 32, 5-Cyclopropyl-6-{[3-fluoro-4-(trifluoromethyl)phenyl]methyl}pyrazolo[1,5-a]pyrimidin-7-ol] cannot be ordered by pKi: over 8.00 for the first, over 8.00 for the second.

Oc1c(Cc2ccc(F)c(Cl)c2)c(C2CC2)nc2ccnn12 [Example 28, 6-[(3-Chloro-4-fluorophenyl)methyl]-5-cyclopropylpyrazolo[1,5-a]pyrimidin-7-ol] and Oc1c(Cc2ccc(Cl)c(Cl)c2)c(C2CC2)nc2ccnn12 [Example 30, 5-Cyclopropyl-6-[(3,4-dichlorophenyl)-methyl]pyrazolo[1,5-a]pyrimidin-7-ol] cannot be ordered by pKi: over 8.00 for the first, over 8.00 for the second.

Oc1c(Cc2ccc(F)c(C(F)(F)F)c2)c(C2CC2)nc2ccnn12 [Example 31, 5-Cyclopropyl-6-{[4-fluoro-3-(trifluoro-methyl)phenyl]methyl}pyrazolo[1,5-a]-pyrimidin-7-ol] and Oc1c(Cc2cc(Cl)cc(Cl)c2)c(C2CC2)nc2ccnn12 [Example 34, 5-Cyclopropyl-6-[(3,5-dichlorophenyl)-methyl]pyrazolo[1,5-a]pyrimidin-7-ol] cannot be ordered by pKi: over 8.00 for the first, over 8.00 for the second.

CC(C)c1nc2ccnn2c(O)c1Cc1ccc(Cl)c(F)c1 [Example 38, 6-[(4-Chloro-3-fluorophenyl)methyl]-5-(propan-2-yl)pyrazolo[1,5-a]pyrimidin-7-ol] and CC(C)c1nc2ccnn2c(O)c1Cc1cc(F)cc(Cl)c1 [Example 39, 6-[(3-Chloro-5-fluorophenyl)methyl]-5-(propan-2-yl)pyrazolo[1,5-a]pyrimidin-7-ol] cannot be ordered by pKi: over 8.00 for the first, over 8.00 for the second.

CC(C)c1nc2ccnn2c(O)c1Cc1cc(Cl)cc(Cl)c1 [Example 42, 6-[(3,5-Dichlorophenyl)methyl]-5-(propan-2-yl)pyrazolo[1,5-a]pyrimidin-7-ol] gave a pKi of over 8.00.
